A short description of data set [1]: hygroscopicity of the crystalline salt. Format: physicochemical.
Data set [2] is described as follows: solubility profile of the crystalline salt. It is filed as physicochemical.

Consider “tris(hydroxymethyl)methylammonium (E)-7-[4-(4-fluorophenyl)-6-isopropyl-2-[methyl(methylsulfonyl)amino]pyrimidin-5-yl]-(3R,5S)-3,5-dihydroxyhept-6-enoate [Example 2]”, for which the hygroscopicity entry in data set [1] is “non-hygroscopic”. Moreover, the solubility profile result in data set [2] is “advantageous solubility profile”.

For the origin of these results see patent publication US7129352B2, “Crystalline salts of 7-′4-(4-fluorophenyl) -6-isopropyl-2-′methyl (methylsulfonyl) amino!pyrimidin-5-yl!- (3R, 5S) -3, 5-dihydroxyhept-6-enoic acid” (AstraZeneca AB, priority 2000, dated 2006).
